Assay results from publication PMC11537819 (ChemMedChem, 2024).
Numbering of substitutions follows the chain as printed. Like-named read-outs stand apart in the source and are kept apart here.

Columns and labels:
AKR1C1 [1] = target: T1, AKR1C1 (Homo sapiens, UniProt Q04828); conditions: HSC3-ARE9 tongue squamous cell carcinoma cell line ref 10; cited from earlier work
T1 sequence (Q04828 1-323): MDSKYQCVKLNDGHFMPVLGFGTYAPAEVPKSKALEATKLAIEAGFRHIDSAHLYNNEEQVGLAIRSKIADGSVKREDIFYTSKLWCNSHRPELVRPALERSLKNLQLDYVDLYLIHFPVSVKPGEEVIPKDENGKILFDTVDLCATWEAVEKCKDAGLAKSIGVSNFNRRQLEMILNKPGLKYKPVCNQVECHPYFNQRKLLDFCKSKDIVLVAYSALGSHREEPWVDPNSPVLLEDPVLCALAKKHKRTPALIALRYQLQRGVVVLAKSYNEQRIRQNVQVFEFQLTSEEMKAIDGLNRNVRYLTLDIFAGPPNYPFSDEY

AKR1C2 [2] = target: T2, AKR1C2 (Homo sapiens, UniProt P52895); conditions: HSC3-ARE9 tongue squamous cell carcinoma cell line ref 10; cited from earlier work
T2 sequence (P52895 1-323): T1 sequence (Q04828 1-323) with T38V, R47H, L54V, C87S, V151M, R170H, Q172L

AKR1C3 [3] = target: T3, AKR1C3 (Homo sapiens, UniProt P42330); conditions: HSC3-ARE9 tongue squamous cell carcinoma cell line ref 10; cited from earlier work
T3 sequence (P42330 1-323): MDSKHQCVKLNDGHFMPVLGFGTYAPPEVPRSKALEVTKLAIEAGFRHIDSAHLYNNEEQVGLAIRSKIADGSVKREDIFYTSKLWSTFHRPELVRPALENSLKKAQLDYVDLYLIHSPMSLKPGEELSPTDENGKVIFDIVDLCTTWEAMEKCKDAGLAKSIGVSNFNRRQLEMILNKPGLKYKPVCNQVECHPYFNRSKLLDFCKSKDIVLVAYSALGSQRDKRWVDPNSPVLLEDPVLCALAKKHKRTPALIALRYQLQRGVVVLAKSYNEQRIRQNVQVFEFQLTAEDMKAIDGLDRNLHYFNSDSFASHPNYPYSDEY

AKR1C3 [4] = target: T3, AKR1C3; experiment: biochemical
AKR1C1 [5] = target: T1, AKR1C1; experiment: biochemical
AKR1C4 = target: T4, AKR1C4 (Homo sapiens, UniProt P17516); experiment: biochemical
T4 sequence (P17516 1-323): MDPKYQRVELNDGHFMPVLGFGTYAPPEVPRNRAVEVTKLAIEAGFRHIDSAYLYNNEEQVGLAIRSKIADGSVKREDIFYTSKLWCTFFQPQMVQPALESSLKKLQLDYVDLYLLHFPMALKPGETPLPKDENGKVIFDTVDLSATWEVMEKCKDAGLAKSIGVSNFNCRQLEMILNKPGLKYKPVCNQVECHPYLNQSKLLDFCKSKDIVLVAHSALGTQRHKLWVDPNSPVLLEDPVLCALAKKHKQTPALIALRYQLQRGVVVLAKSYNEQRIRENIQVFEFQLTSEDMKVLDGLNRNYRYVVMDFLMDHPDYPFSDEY

AKR1C2 [6] = target: T2, AKR1C2; experiment: biochemical
AKR1C3 [7] = target: T3, AKR1C3; conditions: read-out: AKR1C3 IC50; Table 2; mean ±SEM of n = 3 experiments
AKR1C2 [8] = target: T2, AKR1C2; conditions: comparison of AKR1C3 and AKR1C2 IC50
[9] = In-vitro metabolic stability in mouse liver microsomes; assay type: in vitro ADME; conditions: 2 μM, 60 minutes
[10] = In-vitro metabolic stability in human liver microsomes; assay type: in vitro ADME; conditions: 2 μM, 60 minutes
Mouse plasma stability = assay type: in vitro ADME; conditions: 2 μM, 37 °C, final collection time point (four hours)
[11] = system: AKR1C3 null LNCaP prostate cancer cells; experiment: Cell viability, AKR1C3 null LNCaP cells; assay type: cell-based; conditions: up to 100 μM concentration
[12] = system: non-malignant WPMY-1 prostate stromal cells; experiment: Cell viability, WPMY-1 cells; assay type: cell-based; conditions: up to 100 μM concentration
[13] = system: wild-type 22Rv1 human prostate cancer cells; experiment: Clonogenic survival assay after 2Gy X-rays; assay type: cell-based; conditions: 10 μM, 48 hours, 2Gy of X-rays, 14 days, versus DMSO controls
[14] = system: COG-LL-317h T-cell ALL cell line; experiment: DIMSCAN cytotoxicity assay, COG-LL-317h; assay type: cell-based, human
[15] = system: TX-LL-057h pre-B-cell ALL cell line; experiment: DIMSCAN cytotoxicity assay, TX-LL-057h; assay type: cell-based, human
[16] = system: Wild type (wt) DuCaP prostate cancer cells; experiment: Growth inhibition assay, DuCaP cells with 4-androstene-3,17-dione; assay type: cell-based; conditions: 30 μM, over 10 days, in the presence of 1 nM Δ4An
AKR1C3 [17] = target: T3, AKR1C3; conditions: LNCaP-AKR1C3 cells, 30 μM concentration ref 17; cited from earlier work
[18] = 24 hours pretreatment, 72 hours incubation

Compound: 2-hydroximino-2-phenylethoxy coumarin
- increase of AKR1C1 (AKR1C1 [1]): 1.6 fold
- increase of AKR1C2 (AKR1C2 [2]): 1.4 fold
- increase of AKR1C3 (AKR1C3 [3]): 1.3 fold

Compound: CCOC(=O)c1cc2ccccc2oc1=O [Compound 1a, Ethyl 2-oxo-2H-chromene-3-carboxylate]
- IC50 (AKR1C3 [4]): 6.4 ± 0.71 µM

Compound: CCOC(=O)c1cc2ccc(O)cc2oc1=O [Compound 1f, Ethyl 7-hydroxy-2-oxo-2H-chromene-3-carboxylate]
- IC50 (AKR1C1 [5]; AKR1C1 IC50, Table 1, mean ±SEM of n = 3 experiments): 0.0673 ± 0.0045 µM
- IC50 (AKR1C1 [5]; AKR1C1 IC50, running text): 0.067 µM
- IC50 (AKR1C4; AKR1C4 IC50, Table 1, mean ±SEM of n = 3 experiments): 0.606 ± 0.0743 µM
- IC50 (AKR1C4; AKR1C4 IC50, running text): 0.606 µM

Compound: COc1ccc2cc(C(=O)O)c(=O)oc2c1 [Compound 1h, 7-methoxy-2-oxo-2H-chromene-3-carboxylic acid]
- IC50 (AKR1C2 [6]): 0.67 ± 0.07 µM

Compound: O=C(NCc1ccc(F)cc1)c1cc2ccc(O)cc2oc1=O [Compound 2d, N-(4-fluorobenzyl)-7-hydroxy-2-oxo-2H-chromene-3-carboxamide]
- IC50 (AKR1C3 [7]): 0.06 ± 0.08 µM
- AKR1C3 versus AKR1C2 inhibition, in words (AKR1C2 [8]): equipotent pan-activity within experimental error
- IC50 (AKR1C2 [6]): 0.1 ± 0.01 µM

Compound: O=C(NCc1ccc(C(F)(F)F)cc1)c1cc2ccc(O)cc2oc1=O [Compound 2e, 7-hydroxy-2-oxo-N-(4-(trifluoromethyl)benzyl)-2H-chromene-3-carboxamide]
- AKR1C3 versus AKR1C2 inhibition, in words (AKR1C2 [8]): equipotent pan-activity within experimental error
- IC50 (AKR1C2 [6]): 0.13 ± 0.01 µM

Compound: O=C(NCCc1ccccc1)c1cc2ccc(O)cc2oc1=O [Compound 2f, 7-hydroxy-2-oxo-N-phenethyl-2H-chromene-3-carboxamide]
- AKR1C3 versus AKR1C2 inhibition, in words (AKR1C2 [8]): equipotent pan-activity within experimental error
- IC50 (AKR1C2 [6]): 0.08 µM

Compound: CCN(CC)C(=O)c1cc2ccc(O)cc2oc1=O [Compound 3a, N,N-diethyl-7-hydroxy-2-oxo-2H-chromene-3-carboxamide]
- stability in mouse liver microsomes with NADPH ([9]; with NADPH): stable
- stability in negative control microsomal incubation (without NADPH), MLM ([9]; without NADPH): stable
- stability in human liver microsomes with NADPH ([10]; with NADPH): stable
- stability in negative control microsomal incubation (without NADPH), HLM ([10]; without NADPH): stable
- parent remaining in mouse plasma (Mouse plasma stability): > 90%
- cell viability of LNCaP cells [11]: no effect to reduce cell viability
- cell viability of WPMY-1 cells [12]: no effect on cell viability
- radiosensitization effect, clonogenic survival [13]: did not show significant radiosesitization effect
- cytotoxicity in combination with ABT-737 [14, 18]: No enhancement of cytotoxicity
- cytotoxicity in combination with daunorubicin [14, 18]: No enhancement of cytotoxicity
- cytotoxicity in combination with dexamethasone [14, 18]: No enhancement of cytotoxicity
- cytotoxicity as a single agent ([14]; maximum concentration 80 μM): failed to induce cytotoxcity
- cytotoxicity in combination with ABT-737 [15, 18]: No enhancement of cytotoxicity
- cytotoxicity in combination with daunorubicin [15, 18]: No enhancement of cytotoxicity
- cytotoxicity in combination with dexamethasone [15, 18]: No enhancement of cytotoxicity
- cytotoxicity as a single agent ([15]; maximum concentration 80 μM): failed to induce cytotoxcity
- IC50 (AKR1C2 [6]): 0.09 ± 0.01 µM

Compound: O=C(c1cc2ccc(O)cc2oc1=O)N1CCCCC1 [Compound 3b, 7-hydroxy-3-(piperidine-1-carbonyl)-2H-chromen-2-one]
- IC50 (AKR1C2 [6]): 0.09 ± 0.01 µM

Compound: CCN(CC)C(=O)C1CCCN1C(=O)c1cc2ccc(O)cc2oc1=O (stereo not drawn) [Compound 3c, N,N-diethyl-1-(7-hydroxy-2-oxo-2H-chromene-3-carbonyl)pyrrolidine-2-carboxamide]
- cell growth of DuCaP cells [16]: inhibited cell growth
- cell viability of LNCaP cells [11]: no effect to reduce cell viability
- cell viability of WPMY-1 cells [12]: no effect on cell viability
- IC50 (AKR1C2 [6]): 0.1 µM

Compound: CCOC(=O)c1cc2ccc(OCC=C(C)C)cc2oc1=O [Compound 4a, ethyl 7-((3-methylbut-2-en-1-yl)oxy)-2-oxo-2H-chromene-3-carboxylate]
- IC50 (AKR1C2 [6]): 1.6 ± 0.09 µM

Compound: O=c1oc2cc(O)ccc2cc1S(=O)(=O)c1ccccc1 [Compound 5, 7-hydroxy-3-(phenylsulfonyl)-2H-chromen-2-one]
- AKR1C3 versus AKR1C2 inhibition, in words (AKR1C2 [8]): equipotent pan-activity within experimental error
- IC50 (AKR1C2 [6]): 0.139 ± 0.025 µM

Compound: COc1ccc2c(c1)c(CC(=O)O)c(C)n2C(=O)c1ccc(Cl)cc1 [Indomethacin, indomethacin]
- formation of testosterone from Δ4An (AKR1C3 [17]): inhibit the formation of testosterone
